This is an account of results in patent US20240383856A1 (Zedira GmbH, priority 2021, published 2024).

Usually IC90 stands for the concentration needed for an effect of 90%. Broadly, the IC50 is the concentration that inhibits the measured activity by half. For orientation: logD means lipophilicity at a set pH, counting ionised and neutral species.

Series [1] has as its target T1, recombinant human transglutaminase 2 (Homo sapiens, UniProt P21980).
T1 construct: purchased Zedira T022
T1 sequence (P21980 1-687): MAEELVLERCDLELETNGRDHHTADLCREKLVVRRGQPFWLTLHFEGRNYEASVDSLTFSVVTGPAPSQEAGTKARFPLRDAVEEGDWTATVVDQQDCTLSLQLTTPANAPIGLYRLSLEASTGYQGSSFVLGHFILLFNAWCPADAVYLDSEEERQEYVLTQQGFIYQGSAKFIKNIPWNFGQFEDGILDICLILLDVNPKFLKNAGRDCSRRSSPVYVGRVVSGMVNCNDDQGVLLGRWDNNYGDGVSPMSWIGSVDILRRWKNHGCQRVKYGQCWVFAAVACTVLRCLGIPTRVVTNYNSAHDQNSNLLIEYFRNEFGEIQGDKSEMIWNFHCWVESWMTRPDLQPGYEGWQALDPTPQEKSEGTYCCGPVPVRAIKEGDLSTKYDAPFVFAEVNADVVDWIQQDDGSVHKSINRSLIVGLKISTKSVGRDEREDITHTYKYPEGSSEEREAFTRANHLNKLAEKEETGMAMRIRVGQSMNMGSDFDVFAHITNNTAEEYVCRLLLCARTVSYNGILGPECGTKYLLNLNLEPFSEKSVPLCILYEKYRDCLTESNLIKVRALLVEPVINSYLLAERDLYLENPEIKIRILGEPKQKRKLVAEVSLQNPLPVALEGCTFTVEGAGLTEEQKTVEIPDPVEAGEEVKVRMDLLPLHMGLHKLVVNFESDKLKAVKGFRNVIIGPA
Kind of series: Transglutaminase assay (DCC-assay): incorporation of dansylcadaverine into dimethylcasein. In kind it is biochemical. In short, it runs like this:
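Recombinant human TG2 (10 nM final) incorporates dansylcadaverine into N,N-dimethylcasein. Reaction mix: 50 mM Tris-HCl, 10 mM CaCl2, 10 mM glutathione, 2.5% glycerol, 16.7 µM dansylcadaverine, 4 µM dimethylcasein, 200 mM NaCl, pH 8.0. Fluorescence (ex 330/em 500 nm) was followed 30 min at 37 °C; the 20–30 min slope, expressed as % of 2% DMSO control, gave IC50.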

The nature of series [2]: logD by shake flask method (octanol / PBS pH 7.4, HPLC). In kind it is physicochemical. To be noted: octanol / PBS pH 7.4, shake flask. In short, it runs like this: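 Shake-flask partition of compound between octanol and phosphate-buffered saline at pH 7.4, with each phase quantified by HPLC to give LogD.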

Like-named read-outs stand apart in the source and are kept apart here.

Consider `CNC(=O)C(=O)CC[C@H](NC(=O)c1oc2ccccc2c1C)C(=O)Nc1cccn(CC(=O)NC2C3CC4CC(C3)CC2C4)c1=O` (stereo partly drawn) [II-3, (S)-N1-(1-(2-(2-adamantylamino)-2-oxoethyl)-2-oxo-1,2-dihydropyridin-3-yl)-N6-methyl-2-(3-methylbenzofuran-2-carboxamido)-5-oxohexanediamide], for which the IC90 in series [1] (TG2, table with the PK study) was 0.18 µM. The IC50 in series [1] (TG2, table with the PK study, read-out: IC50) was 0.023 µM; in series [1] (recombinant human TG2 10 nM, dansylcadaverine incorporation into dimethylcasein, read-out: IC50 TG2), < 0.04 µM. This molecule yielded a logD in series [2] of 1 to 3.
